Laboratory results as given in patent publication US20180296564A1, “METHOD FOR PREVENTING AND/OR TREATING CHRONIC TRAUMATIC ENCEPHALOPATHY - III” (Eustralis Pharmaceuticals Limited (trading as Pressura …, priority 2013, published 2018).

Test system: tau phosphorylation
Test: Tau phosphorylation after concussive injury in the rat (immunohistology)
Assay type: in vivo
Settings: rat concussion model; 3 mg/kg intravenously at 30 min after induction of injury; assessed 3 days after the concussive event
Description: Note that concussive injury in the rat causes extensive tau phosphorylation (B) by 3 days after the concussive event compared to non-injured animals (A). […] Having established that hyperphosphorylated tau accumulates perivascularly following concussive injury, we used an animal model of concussion to investigate whether concussion causes perivascular release of substance P. We developed a rodent model of concussion to replicate the concussive event (Donkin et al., 2004, 7th International Neurotrauma Symposium, pp 75-78, Medimond Publishers, Bologna, Italy) and subsequently determined whether substance P was released after such an event. There was a clear increase in brain perivascular substance P immunoreactivity after the concussive event (FIG. 2). […] Having shown that mechanical injury causes release of substance P after concussive injury, we then investigated whether Emend® reduces tau hyperphosphorlation after concussive injury. […] Note that concussive injury in the rat causes extensive tau phosphorylation (B) by 3 days after the concussive event compared to non-injured animals (A). […] Thus, administration of Emend® prevents tau hyperphosphorylation and thus prevents the development of CTE.

## C[C@@H](O[C@H]1OCCN(Cc2nc(=O)[nH][nH]2)[C@H]1c1ccc(F)cc1)c1cc(C(F)(F)F)cc(C(F)(F)F)c1 [Emend®, 5-([(2R,3S)-2-((R)-1-[3,5-bis(trifluoromethyl)phenyl]ethoxy)-3-(4-fluorophenyl)morpholino]methyl)-1H-1,2,4-triazol-3(2H)-one]
  effect on tau phosphorylation after concussive injury: almost complete inhibition of tau phosphorylation
